PMC4753678 (Journal of medicinal chemistry, 2016)
Values belong to the compound of their own block, whether it stands above or below them.

Tests used:
[1] = human liver microsome stability; settings: human liver microsomes
[2] = target: T1, dCTPase (Homo sapiens, UniProt Q9H773); assay: jump dilution assay; type: biochemical; settings: 10% of the IC50 concentration
T1 sequence (Q9H773 1-170): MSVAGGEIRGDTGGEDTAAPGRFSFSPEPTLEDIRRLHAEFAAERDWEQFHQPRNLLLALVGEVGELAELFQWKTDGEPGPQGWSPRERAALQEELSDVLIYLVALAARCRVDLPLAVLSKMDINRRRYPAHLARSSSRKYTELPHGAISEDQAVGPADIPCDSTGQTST

[3] = mouse liver microsome stability; settings: mouse liver microsomes
[4] = target: T2, full-length human dCTPase protein (Homo sapiens, UniProt Q9H773); assay: HTS-adapted Malachite Green assay of dCTPase inhibition; type: biochemical; settings: for decrease in potency: compared with compound 6
T2 sequence (Q9H773 1-170): T1 sequence (Q9H773 1-170)

[5] = target: T3, intracellular dCTPase (Homo sapiens, UniProt Q9H773); assay: cellular thermal shift assay in HL60 cells; type: cell-based; settings: 2 h incubation, heated at 67 °C
T3 sequence (Q9H773 1-170): T1 sequence (Q9H773 1-170)

[6] = test system: kinases; assay: selectivity against kinases; type: biochemical
[7] = test system: DNA; assay: DNA intercalation
[8] = test system: NTPases/NUDIX hydrolases; assay: selectivity panel of related NTPases/NUDIX hydrolases; type: biochemical
[9] = target: T4, purified dCTPase enzyme (Homo sapiens, UniProt Q9H773); assay: differential scanning fluorimetry assay; type: binding
T4 sequence (Q9H773 1-170): T1 sequence (Q9H773 1-170)

[10] = test system: base excision repair enzymes; assay: selectivity against base excision repair enzymes; type: biochemical
[11] = test system: p-Chk1, γ-H2AX, 53BP1, cleaved caspase 3; assay: DNA replication stress and apoptosis markers; type: cell-based; settings: at the concentrations and time points tested
[12] = glutathione conjugation with metabolic activation in HLM; type: in vitro ADME, human; settings: in the presence of metabolic activation system (in HLM)
[13] = stability of a solution at room temperature under normal light; type: physicochemical; settings: normal light conditions, five months
[14] = test system: HL60 cells; assay: combination with cytidine analogues, cell death by flow cytometry; type: cell-based; settings: 72 h, compound 18 2.5 μM, increasing concentrations of cytidine analogues
[15] = plasma protein binding; type: in vitro ADME

inhibition of dCTPase (in words) [4]: submicromolar activity
SMILES: Cc1nc2c([N+](=O)[O-])c(F)c(F)cc2n1Cc1ccc(B(O)O)cc1 [Compound 39, (4-((5,6-Difluoro-2-methyl-4-nitro-1H-benzo[d]imidazol-1-yl)-methyl)phenyl)boronic Acid]

E HLM (extraction ratio) [1]: 0.61
E MLM (extraction ratio) [3]: 0.73
SMILES: Cc1nc2c([N+](=O)[O-])c(Cl)c(Cl)cc2n1Cc1ccc(-n2cccn2)cc1 [Compound 27, 1-(4-(1H-Pyrazol-1-yl)benzyl)-5,6-dichloro-2-methyl-4-nitro-1H-benzo[d]imidazole]

inhibition of dCTPase (in words) [4]: no inhibiton of dCTPase
SMILES: COc1ccc(Cn2cnc3ccccc32)cc1 [Compound 7, 1-(4-Methoxybenzyl)-1H-benzo[d]imidazole]

decrease in potency [4]: 400 fold
SMILES: COc1ccc(Cn2c(C)nc3cc(C)c(C)cc32)cc1 [Compound 10, 1-(4-Methoxybenzyl)-2,5,6-trimethyl-1H-benzo[d]imidazole]

decrease in potency [4]: approximately 25 fold
SMILES: COc1ccc(Cn2c(C)nc3c([N+](=O)[O-])cccc32)cc1 [Compound 12, 1-(4-Methoxybenzyl)-2-methyl-4-nitro-1H-benzo[d]imidazole]

inhibition of dCTPase (in words) [4]: no inhibiton of dCTPase
SMILES: COc1ccc(Cn2cnc3cc(C)c(C)cc32)cc1 [Compound 8, 1-(4-Methoxybenzyl)-5,6-dimethyl-1H-benzo[d]imidazole]

intracellular dCTPase stabilization / target engagement [5]: did not stabilize dCTPase
DNA intercalation [7]: did not intercalate DNA
stabilization of the purified dCTPase enzyme [9]: concentration-dependent stabilization
selectivity over base excision repair enzymes [10]: excellent selectivity
E HLM (extraction ratio) [1]: 0.59
E MLM (extraction ratio) [3]: 0.88
SMILES: COc1ccc(Cn2c(C)nc3c([N+](=O)[O-])c(Cl)c(Cl)cc32)cc1 [Compound 14, 5,6-Dichloro-1-(4-methoxybenzyl)-2-methyl-4-nitro-1H-benzo-[d]imidazole]
selectivity over kinases [6]: excellent selectivity
selectivity across related NTPases/NUDIX hydrolases [8]: excellent selectivity

inhibition of dCTPase (in words) [4]: no inhibition of dCTPase
SMILES: COc1ccc(Cn2c(C)nc3ccccc32)cc1 [Compound 9, 1-(4-Methoxybenzyl)-2-methyl-1H-benzo[d]imidazole]

More lines, now with the values behind:

SMILES: O=[N+]([O-])c1c(Cl)c(Cl)cc2c1nc(C1CC1)n2Cc1ccc(B(O)O)cc1 [Compound 36, (4-((5,6-Dichloro-2-cyclopropyl-4-nitro-1H-benzo[d]imidazol-1-yl)methyl)phenyl)boronic Acid]
E HLM (extraction ratio) [1]: 0.14
reversibility of dCTPase inhibition [2]: reversible off-rate
E MLM (extraction ratio) [3]: 0.83

SMILES: Cc1nc2c([N+](=O)[O-])c(Cl)c(Cl)cc2n1Cc1ccc(B(O)O)cc1 [Compound 18, (4-((5,6-Dichloro-2-methyl-4-nitro-1H-benzo[d]imidazol-1-yl)-methyl)phenyl)boronic Acid]
intracellular dCTPase stabilization / target engagement [5]: strong intracellular target engagement
selectivity over kinases [6]: excellent selectivity
DNA intercalation [7]: did not intercalate DNA
selectivity across related NTPases/NUDIX hydrolases [8]: excellent selectivity
stabilization of the purified dCTPase enzyme [9]: concentration-dependent stabilization
selectivity over base excision repair enzymes [10]: excellent selectivity
E HLM (extraction ratio) [1]: 0.38
DNA replication stress (p-Chk1, γ-H2AX, 53BP1) and cleaved caspase 3 [11]: did not increase DNA replication stress
conjugation with glutathione (GSH) [12]: did not conjugate
degradation of a solution [13]: no signs of degradation
reversibility of dCTPase inhibition [2]: reversible off-rate
cell death in combination with cytidine analogues [14]: concentration-dependent increase in cell death
E MLM (extraction ratio) [3]: 0.24

SMILES: Cc1nc2c([N+](=O)[O-])c(Cl)c(Cl)cc2n1Cc1ccc(B2OC(=O)CN(C)CC(=O)O2)cc1 [Compound 30, 2-(4-((5,6-Dichloro-2-methyl-4-nitro-1H-benzo[d]-imidazol-1-yl)methyl)phenyl)-6-methyl-1,3,6,2-dioxazaborocane-4,8-dione]
conjugation with glutathione (GSH) [12]: did not conjugate
fraction unbound [15]: 0.008
E MLM (extraction ratio) [3]: 0.36

SMILES: Cc1nc2cc(Cl)c(Cl)cc2n1Cc1ccc(B(O)O)cc1 [Compound 38, (4-((5,6-Dichloro-2-methyl-1H-benzo[d]imidazol-1-yl)methyl)-phenyl)boronic Acid]
inhibition of dCTPase (in words) [4]: submicromolar activity

SMILES: Cc1n[nH]c(C)c1CCn1c(C)nc2c([N+](=O)[O-])c(Cl)c(Cl)cc21 [Compound 25, 5,6-Dichloro-1-(2-(3,5-dimethyl-1H-pyrazol-4-yl)ethyl)-2-methyl-4-nitro-1H-benzo[d]imidazole]
E HLM (extraction ratio) [1]: 0.83
E MLM (extraction ratio) [3]: 0.89
